Experimental data from patent US20230138400A1, “METHODS AND PHARMACEUTICAL COMPOSITIONS FOR REPROGRAMING IMMUNE ENVIRONMENT IN A SUBJECT IN NEED THEREOF” (INSERM (INSTITUT NATIONAL DE LA SANTE ET DE LA RECHERCHE …, priority 2016, published 2023).

Tested on: naive CD8 T cells isolated from the spleen of the C57BL/6 mice
Assay: Activation of naive CD8 T cells (anti-CD3, anti-CD28, IL2) in presence of DDA, flow cytometry
Type: cell-based, mouse
Experimental: FIGS. 1A-E. Sorted naive CD4 T cells were isolated from the spleen of C57BL/6 mice and activated in the indicated Th1, Th2, Treg, or Th17 polarizing conditions as described in the “Materials and methods” section”. These cells were cultured in the presence of increasing concentrations of DDA. After 96 hours, the percentage of (A) Th1: CD4+Tbet+IFNg+, (B) Th2: CD4+GATA3+[…], (C) Treg: CD4+Foxp3+IL10+ and (D) Th17: CD4+RORgt+[…], cells was measured by flow cytometry. (E) Sorted naive CD8 T cells were isolated from the spleen of the C57BL/6 mice and activated with anti-CD3, anti-CD28 and recombinant IL2. After 96 hours, the percentage of cytotoxic T CD8+GranzymB+IFNg+ cells was measured by flow cytometry.
FIGS. 2A-E. Sorted naive CD4 T cells isolated from the spleen of C57BL/6 mice were activated in Th1, Th2, Treg, or Th17 polarizing conditions as indicated in the “Materials and methods” section”. After 96 h, increasing concentrations of DDA was added on polarized CD4 T cells for 24 h. Then the percentage of (A) CD4+Tbet+IFNg+, (B) CD4+GATA3+[…], (C) CD4+Foxp3+IL10+ and (D) CD4+RORgt+[…] cells was measured by flow cytometry. (E) Sorted naïve CD8 T cells were isolated from the spleen of the C57BL/6 mice and activated with anti-CD3, anti-CD28 and recombinant IL2. After 96 h, increasing concentrations of DDA was added on activated CD8 T cells for 24 h. Then the percentage of cytotoxic T CD8+GranzymB+IFNg+ cells was measured by flow cytometry.
Cells isolation. Single-cells leukocyte suspensions were obtained from spleens of C57BL/6 mice. Naive CD4 or CD8 T cells are isolated by depletion of memory CD4 or CD8 T cells and non-CD4 or non-CD8 T cells according the manufacturer's protocol from Miltenyi kit (Miltenyi biotec). […]
Immune cell culture. […] After 5 days of culture, cells were collected and analyzed by flow cytometry. To investigate the impact of DDA on polarization of CD4 or CD8 naive T cells, DDA or the solvent vehicle was added at the beginning of culture at Day 0 or at Day 4 and cells was analyzed at day 5 by flow cytometry.

**Q.** Which results are given for `CC(C)CCCC(C)[C@H]1CCC2C3C[C@@H](NCCc4cnc[nH]4)[C@@]4(O)C[C@@H](O)CC[C@]4(C)C3CC[C@@]21C` (stereo partly drawn) [DDA, 5a-hydroxy-6b-[2-(1H-imidazol-4-yl)ethylamino]cholestan-3b-ol]?
**A.** concentration from which differentiation of naïve CD8 T cells into functional cytotoxic CD8 T cells is increased (DDA added at day 0, 96 h, CD8+GranzymB+IFNg+): ≥ 10 nM; concentration from which differentiation of naïve CD8 T cells into functional cytotoxic CD8 T cells is increased (DDA added at day 4 for 24 h): ≥ 1 nM; CD8 T cells phenotype (data not shown): no significant effect
